Measurements from patent US9040570B2, “Compounds for anti-fungal treatment” (priority 2010, dated 2015).
Values after ≈ are worked out from the molar mass of the structure shown. “Also recorded” adds a separate entry of the source. One block for each compound: values may come before it.

How the values were obtained:
[1] = other laboratories (Vu and Gelli); cited from earlier work
C. neoformans [2] = experiment: AK assay with C. neoformans (lysis); type: cell-based
Description: The AK assay was designed to take advantage of the fact that dead yeast cells lose membrane integrity and leak intracellular enzymes and proteins into culture medium. Upon cell lysis, AK is released into the medium and is detected by a coupled enzyme reaction in which AK converts 2 molecules of ADP into ATP. The ATP and luciferin are used by luciferase and a luminescent signal is generated as a reporter of yeast cell lysis (FIG. 1). […] Additionally, traditional growth-based screening cannot differentiate between fungistatic and fungicidal molecules.
In order to determine whether the AK assay was applicable to C. neoformans, a set of molecules containing drugs was tested. […] Agents Chemother.

C. neoformans [3] = conditions: reported by Vu and Gelli; cited from earlier work
S. cerevisiae cells = experiment: growth assay / MIC with S. cerevisiae cells; type: cell-based; conditions: Saccharomyces cerevisiae; this strain of S. cerevisiae cells; read-out: minimum inhibitory concentration (MIC)
S. cerevisiae [4] = experiment: adenylate kinase (AK) assay with S. cerevisiae (yeast cell lysis); type: cell-based; conditions: for AK assay result (fungilytic activity): screen of Prestwick Library
Procedure: A high throughput assay that detects molecules that cause yeast cell lysis was recently developed as a new method for anti-fungal drug discovery (Krysan and DiDone, J. Biomol. Screen 13:657-64 (2008)). The adenylate kinase (AK) assay has three important features that make it a very useful tool for the identification of fungicidal anti-cryptococcal molecules: it is specific for fungicidal molecules; it is cell-based; and it is carried out with C. neoformans directly.
The AK assay was designed to take advantage of the fact that dead yeast cells lose membrane integrity and leak intracellular enzymes and proteins into culture medium. Upon cell lysis, AK is released into the medium and is detected by a coupled enzyme reaction in which AK converts 2 molecules of ADP into ATP. The ATP and luciferin are used by luciferase and a luminescent signal is generated as a reporter of yeast cell lysis (FIG. 1). The AK assay is specific for molecules that are fungicidal and is more sensitive than traditional growth-based antifungal screening assays. Additionally, traditional growth-based screening cannot differentiate between fungistatic and fungicidal molecules.
As part of the validation studies, a library of 1200 previously marketed drugs (Prestwick Library) was screened using the AK assay with S. cerevisiae (Krysan and DiDone, J. Biomol. Screen 13:657-64 (2008)). The library contained 15 clinically used antifungal drugs, of which 9 scored positive as fungilytic. […] In addition to molecules with known antifungal activity, fungilytic activity was identified in 10 drugs for which no antifungal activity had been reported previously (FIG. 3B). Subsequently, the antifungal activity of two drugs, astemizole and suloctidil was confirmed by other laboratories (Vu and Gelli, Med. Mycol. 1-9 (2009)). Thus, the AK assay is a sensitive reporter of antifungal activity in the HTS setting.

C. neoformans [5] = experiment: MIC against C. neoformans; type: cell-based; conditions: for MIC: Cryptococcus neoformans
Procedure: (§1) To complete the characterization of the antifungal activity of triphenylethylene-based estrogen receptor antagonists, toremifene was also evaluated. […] The interaction of toremifene with FLC was also evaluated using checkerboard methods.

C. neoformans [6] = conditions: cited from earlier work
C. albicans [7] = experiment: mouse model of disseminated candidiasis, kidney fungal burden; type: in vivo; conditions: mice, 7 day pre-treatment at 200 mg/kg, C. albicans tail vein injection, 48 hour kidney burden
Procedure: FIGS. 5A and 5B show in vitro and in vivo antifungal activity of TAM/CLM.
Mice were treated with either sham or tamoxifen for seven days prior to challenge with C. albicans by tail vein injection. […] The mice were treated for an additional two days, sacrificed, and kidney fungal burdens determined. Kidney fungal burden is a well-characterized quantitative endpoint that correlates with efficacy. […] These studies further support the potential utility of this class of molecules as antifungal agents.

S. cerevisiae [8] = experiment: chemical genetic analysis: growth of S. cerevisiae PKC1/CMD1 strains on tamoxifen plates; type: cell-based
Description: Previously, the molecular target of tamoxifen and related compounds in yeast was unknown. […] Both of these proteins are essential in yeast.

calmodulin with Myo2p = system: T1, calmodulin with Myo2p; experiment: pull down of Myo2-GFP by sepharose bead immobilized calmodulin from yeast cell lysates; type: binding; conditions: in vitro, crude yeast cell lysates
T1 construct: host or cells: Myo2-GFP came from crude lysates of yeast cells expressing it

C. albicans [9] = experiment: follow-up lysis assay with C. albicans; type: cell-based
Myo2-GFP = Myo2-GFP localization to bud neck/septum during mitosis; type: cell-based, yeast
C. albicans [10] = experiment: MIC against C. albicans; type: cell-based; conditions: Candida albicans
Procedure: as §1

C. neoformans [11] = experiment: non-antibody mediated phagocytosis of C. neoformans by J774 cells; type: cell-based, murine; conditions: absence of opsonization; subinhibitory toremifene 4 μg/ml overnight
pathogenic yeast = experiment: in vitro susceptibility testing of a range of pathogenic yeast, CLSI standardized methods; type: cell-based

Structure (SMILES): COc1ccc(CCN2CCC(Nc3nc4ccccc4n3Cc3ccc(F)cc3)CC2)cc1 [astemizole]
antifungal activity [1]: confirmed
AK release / lysis (C. neoformans [2]): caused lysis
fungicidal activity toward C. neoformans (C. neoformans [3]): fungicidal
interaction with FLC (C. neoformans [3]): synergistic

Structure (SMILES): CC[C@H](C)C[C@H](C)CCCCCCCCC(=O)N[C@H]1C[C@@H](O)[C@@H](NCCN)NC(=O)[C@@H]2[C@@H](O)CCN2C(=O)[C@H]([C@H](O)CCN)NC(=O)[C@H]([C@H](O)[C@@H](O)c2ccc(O)cc2)NC(=O)[C@@H]2C[C@@H](O)CN2C(=O)[C@H]([C@@H](C)O)NC1=O [caspofungin]
MIC (S. cerevisiae cells): 0.062 µg/mL (≈ 0.0567 µM)
concentration inducing AK release relative to concentration causing detectable change in growth rate (S. cerevisiae [4]; fold below): ~10 fold
AK release / lysis (C. neoformans [2]): not

Structure (SMILES): OC(Cn1cncn1)(Cn1cncn1)c1ccc(F)cc1F [fluconazole]
MIC (C. neoformans [5]): 4 µg/mL
increase of phagocytosis (C. neoformans [6]; Nosanchuk et al.): 2 fold
AK assay result (fungilytic activity) (S. cerevisiae [4]): negative; also recorded: not positive

Structure (SMILES): CC/C(=C(\c1ccccc1)c1ccc(OCCN(C)C)cc1)c1ccccc1 [tamoxifen]
lowering of kidney fungal burden (C. albicans [7]): 1.5 log10
sensitivity of strains with hypofunctional alleles of CMD1 (S. cerevisiae [8]; S. cerevisiae cmd1 mutants): hypersensitive
effect of CMD1 overexpression on growth on tamoxifen plates (S. cerevisiae [8]; wild type S. cerevisiae overexpressing CMD1): suppressed toxicity
effect of PKC1 overexpression on growth on tamoxifen plates (S. cerevisiae [8]; wild type S. cerevisiae overexpressing PKC1): exacerbated its effects
ability of immobilized calmodulin to pull down Myo2-GFP (calmodulin with Myo2p): interferes
MIC (C. neoformans [5]): 64 µg/mL
AK assay result (fungilytic activity) (S. cerevisiae [4]): highly fungilytic
lysis (C. albicans [9]): cause lysis
Myo2-GFP localizing to the bud neck/septum region (Myo2-GFP): prevented
MIC (C. albicans [10]): 32 µg/mL

MIC lower than either tamoxifen or clomiphene (C. neoformans [5]): 16 fold
increase of MIC at 30° C. relative to 37° C. (C. neoformans [5]): 2 fold
MIC (C. neoformans [5]): 4 µg/mL
MIC (C. albicans [10]): 32 µg/mL
Structure (SMILES): CN(C)CCOc1ccc(/C(=C(/CCCl)c2ccccc2)c2ccccc2)cc1 [toremifene]
increase of phagocytosis of C. neoformans by J774 cells (C. neoformans [11]): 2 fold
increase in AK release (C. neoformans [2]; at 4 μg/mL): 12 fold

Structure (SMILES): CCCCc1oc2ccccc2c1C(=O)c1cc(I)c(OCCN(CC)CC)c(I)c1 [amiodarone]
AK release / lysis (C. neoformans [2]): AK release was detected

Structure (SMILES): COC1=CC(=O)C[C@@H](C)[C@]12Oc1c(Cl)c(OC)cc(OC)c1C2=O [griseofulvin]
AK assay result (fungilytic activity) (S. cerevisiae [4]): negative; also recorded: not positive

Structure (SMILES): C[C@@H]1[C@H](O)[C@@H](C)/C=C/C=C/C=C/C=C/C=C/C=C/C=C/[C@H](O[C@@H]2O[C@H](C)[C@@H](O)[C@H](N)[C@@H]2O)C[C@@H]2O[C@](O)(C[C@@H](O)C[C@@H](O)[C@H](O)CC[C@@H](O)C[C@@H](O)CC(=O)O[C@H]1C)C[C@H](O)[C@H]2C(=O)O [amphotericin B]
efficiency by which macrophages phagocytose C. neoformans (C. neoformans [6]; background statement): increase

Structure (SMILES): CCCCCCCCNC(C)C(O)c1ccc(SC(C)C)cc1 (centres unmarked) [suloctidil]
antifungal activity [1]: confirmed

Structure (SMILES): CCN(CC)CCOc1ccc(C(=C(Cl)c2ccccc2)c2ccccc2)cc1 [clomiphene]
MIC (C. neoformans [5]): 64 µg/mL
activity relative to tamoxifen (pathogenic yeast): consistently less active
AK assay result (fungilytic activity) (S. cerevisiae [4]): highly fungilytic
lysis (C. albicans [9]): cause lysis
AK release / lysis (C. neoformans [2]): cause lysis
